The record followed here is US9409966B2, “Glucagon-like peptide-1 derivatives and their pharmaceutical use” (priority 2007, dated 2016).

*1 amine or outer side, *2 acyl side, *3 side chain or, on linkers, in order; H or OH if unused. Where a SMILES comes first, the peptide text is derived from it. Side-chain parts run from the residue outwards. [ ]: non-standard residue; d: D form. The star is where a group is joined. C18 diacid = O=C(O)CCCCCCCCCCCCCCCCC(=O)*; γGlu = O=C(O)[C@H](CCC(=O)[*:2])N[*:1]; Palmitoyl = CCCCCCCCCCCCCCCC(=O)*; AEEA = NCCOCCOCC(=O)O; Aib = CC(C)(N)C(=O)O Where only a bound is given, the exact number is not on record here.

For assay [1], the target named is T1, human GLP-1 receptor (Homo sapiens, UniProt P43220).
T1 construct: expressed in transfected cells; host or cells: BHK467-12A (tk-ts13) baby hamster kidney cells; purified plasma membranes
Nature of the assay: Stimulation of cAMP formation in a cell line expressing the cloned human GLP-1 receptor. To be noted: cAMP production, purified plasma membranes from BHK467-12A (tk-ts13), AlphaScreen cAMP Assay Kit; read-out: Potency [EC50/nM]. It counts as biochemical. Background: Changes in cAMP serve as a functional read-out for many G protein-coupled receptors.
Protocol: A stable transfected cell line has been prepared at NN A/S, Denmark, and a high expressing clone was selected for screening. The cells were grown at 5% CO2 in DMEM, 5% FCS, 1% Pen/Strep (Penicillin/Streptomycin) and 0.5 mg/ml of the selection marker G418.
Cells at approximate 80% confluence were washed 2× with PBS (Phosphate Buffered Saline) and harvested with Versene (aqueous solution of the tetrasodium salt of ethylenediaminetetraacetic acid), centrifuged 5 min at 1000 rpm and the supernatant removed. The additional steps were all made on ice. […] Suspension in Buffer 2, homogenization and centrifugation was repeated once and the membranes were resuspended in Buffer 2 and ready for further analysis or stored at −80° C.
The functional receptor assay was carried out by measuring the peptide induced cAMP production by The AlphaScreen Technology. […] The capture of cAMP is achieved by using a specific antibody conjugated to acceptor beads. Formed cAMP was counted and measured at a AlphaFusion Microplate Analyzer. The EC50 values were calculated using the Graph-Pad Prisme software (version 5).

The target of assay [2] is human serum albumin (HSA) (Homo sapiens, UniProt P02768). The assay can be described thus: Albumin binding affinity, competition scintillation proximity assay (SPA). On the technique in general: In a scintillation proximity assay essentially only radioactivity close to the scintillant gives light.
human serum albumin (HSA), sequence (P02768 25-609): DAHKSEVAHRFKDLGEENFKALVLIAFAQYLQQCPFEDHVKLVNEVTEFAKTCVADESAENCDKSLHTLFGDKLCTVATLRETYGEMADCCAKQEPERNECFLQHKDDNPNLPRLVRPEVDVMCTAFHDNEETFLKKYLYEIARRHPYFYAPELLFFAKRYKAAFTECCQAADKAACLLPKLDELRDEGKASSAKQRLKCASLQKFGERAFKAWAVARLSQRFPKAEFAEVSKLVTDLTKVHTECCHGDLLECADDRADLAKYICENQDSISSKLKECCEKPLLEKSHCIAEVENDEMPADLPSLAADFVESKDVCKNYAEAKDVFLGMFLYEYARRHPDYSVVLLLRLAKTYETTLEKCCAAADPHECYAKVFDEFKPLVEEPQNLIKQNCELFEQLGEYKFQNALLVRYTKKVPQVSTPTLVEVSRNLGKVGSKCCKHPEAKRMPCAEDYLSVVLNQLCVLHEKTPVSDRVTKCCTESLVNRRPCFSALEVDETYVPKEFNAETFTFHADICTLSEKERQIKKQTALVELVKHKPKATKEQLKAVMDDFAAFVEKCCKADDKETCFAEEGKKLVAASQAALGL
Protocol: Streptavidin-SPA beads (GE Healthcare RPNQ0009) were incubated with biotinylated HSA for 5 hours. The beads were washed with buffer to remove unbound HSA. […] After 20 hours of gentle rocking at room temperature the plates were centrifuged and counted on a TopCounter.

T1 sequence (P43220 24-463): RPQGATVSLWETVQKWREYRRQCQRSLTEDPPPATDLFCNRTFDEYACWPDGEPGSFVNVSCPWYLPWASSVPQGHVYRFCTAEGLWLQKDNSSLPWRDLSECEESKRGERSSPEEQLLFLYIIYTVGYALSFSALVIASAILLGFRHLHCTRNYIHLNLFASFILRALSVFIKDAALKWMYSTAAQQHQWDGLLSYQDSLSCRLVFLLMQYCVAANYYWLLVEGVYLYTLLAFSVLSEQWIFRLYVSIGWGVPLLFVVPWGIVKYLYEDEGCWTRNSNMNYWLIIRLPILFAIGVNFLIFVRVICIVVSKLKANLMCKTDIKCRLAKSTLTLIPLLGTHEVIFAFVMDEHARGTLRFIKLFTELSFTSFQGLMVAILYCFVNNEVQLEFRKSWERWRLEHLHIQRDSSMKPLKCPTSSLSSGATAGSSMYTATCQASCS

Take `CCCCCCCCCCCCCCCC(=O)N[C@@H](CCC(=O)NCCOCCOCC(=O)NCCOCCOCC(=O)NCCCC[C@H](NC(=O)[C@H](CCCNC(=N)N)NC(=O)CNC(=O)[C@H](CCCNC(=N)N)NC(=O)[C@@H](NC(=O)[C@H](CC(C)C)NC(=O)[C@H](Cc1c[nH]c2ccccc12)NC(=O)[C@H](C)NC(=O)[C@@H](NC(=O)[C@H](Cc1ccccc1)NC(=O)[C@H](CCC(=O)O)NC(=O)[C@H](CCCNC(=N)N)NC(=O)[C@H](C)NC(=O)[C@H](C)NC(=O)[C@H](CCC(N)=O)NC(=O)[C@H](CCC(=O)O)NC(=O)[C@H](CCC(=O)O)NC(=O)[C@H](CC(C)C)NC(=O)[C@H](Cc1ccc(O)cc1)NC(=O)[C@H](CO)NC(=O)[C@H](CO)NC(=O)[C@@H](NC(=O)[C@H](CC(=O)O)NC(=O)[C@H](CO)NC(=O)[C@@H](NC(=O)[C@H](Cc1ccccc1)NC(=O)[C@@H](NC(=O)CNC(=O)[C@H](CCC(=O)O)NC(=O)[C@H](C)NC(=O)CCc1c[nH]cn1)[C@@H](C)O)[C@@H](C)O)C(C)C)[C@@H](C)CC)C(C)C)C(N)=O)C(=O)O` [Example 18, N-epsilon37-{2-(2-(2-(2-[2-(2-(4-(hexadecanoylamino)-4-carboxybutyrylamino)ethoxy)ethoxy]acetyl)ethoxy)ethoxy)acetyl)}-[desaminoHis7,Glu22, Arg26,Arg34,Lys 37] (GLP-1-(7-37)amide]: the EC50 in assay [1] was 0.02 nM; in assay [2] it was over 2000 nM.
For `CC[C@H](C)[C@H](NC(=O)[C@H](Cc1ccccc1)NC(=O)[C@H](CCC(=O)O)NC(=O)[C@H](CCCNC(=N)N)NC(=O)[C@H](C)NC(=O)[C@H](C)NC(=O)[C@H](CCC(N)=O)NC(=O)[C@H](CCC(=O)O)NC(=O)[C@H](CCC(=O)O)NC(=O)[C@H](CC(C)C)NC(=O)[C@H](Cc1ccc(O)cc1)NC(=O)[C@H](CO)NC(=O)[C@H](CO)NC(=O)[C@@H](NC(=O)[C@H](CC(=O)O)NC(=O)[C@H](CO)NC(=O)[C@@H](NC(=O)[C@H](Cc1ccccc1)NC(=O)[C@@H](NC(=O)CNC(=O)[C@H](CCC(=O)O)NC(=O)[C@H](C)NC(=O)CCc1c[nH]cn1)[C@@H](C)O)[C@@H](C)O)C(C)C)C(=O)N[C@@H](C)C(=O)N[C@@H](Cc1c[nH]c2ccccc12)C(=O)N[C@@H](CC(C)C)C(=O)N[C@H](C(=O)N[C@@H](CCCNC(=N)N)C(=O)NCC(=O)N[C@@H](CCCNC(=N)N)C(=O)N[C@@H](CCCCNC(=O)CCCS(=O)(=O)NC(=O)CCCCCCCCCCCCCCCc1nnn[nH]1)C(N)=O)C(C)C` [Example 21, N-epsilon37-[4-(16-(1H-Tetrazol-5-yl)hexadecanoylsulfamoyl)butyryl][DesaminoHis7,Glu22,Arg26,Arg34,Lys37]GLP-1-(7-37)amide], in that order: 1.27 nM and over 2000 nM.
For `CC[C@H](C)[C@H](NC(=O)[C@H](Cc1ccccc1)NC(=O)[C@H](CCC(=O)O)NC(=O)[C@H](CCCNC(=N)N)NC(=O)[C@H](C)NC(=O)[C@H](C)NC(=O)[C@H](CCC(N)=O)NC(=O)[C@H](CCC(=O)O)NC(=O)[C@H](CCC(=O)O)NC(=O)[C@H](CC(C)C)NC(=O)[C@H](Cc1ccc(O)cc1)NC(=O)[C@H](CO)NC(=O)[C@H](CO)NC(=O)[C@@H](NC(=O)[C@H](CC(=O)O)NC(=O)[C@H](CO)NC(=O)[C@@H](NC(=O)[C@H](Cc1ccccc1)NC(=O)[C@@H](NC(=O)CNC(=O)[C@H](CCC(=O)O)NC(=O)[C@H](C)NC(=O)CCc1c[nH]cn1)[C@@H](C)O)[C@@H](C)O)C(C)C)C(=O)N[C@@H](C)C(=O)N[C@@H](Cc1c[nH]c2ccccc12)C(=O)N[C@@H](CC(C)C)C(=O)N[C@H](C(=O)N[C@@H](CCCNC(=N)N)C(=O)NCC(=O)N[C@@H](CCCNC(=N)N)C(=O)N[C@@H](CCCCNC(=O)COCCOCCNC(=O)COCCOCCNC(=O)CC[C@H](NC(=O)CCCCCCCCCCCCCCCCCCC(=O)O)C(=O)O)C(=O)O)C(C)C` [Example 22, N-epsilon37-[2-(2-{2-[2-(2-{2-[(S)-4-Carboxy-4-(19-carboxynonadecanoylamino)butyrylamino]ethoxy}ethoxy)acetylamino]ethoxy}ethoxy)acetyl][DesaminoHis7,Glu22,Arg26,Arg34,Lys37]GLP-1-(7-37)], in that order: 1.35 nM and 400 to 800 nM.
For `CC[C@H](C)[C@H](NC(=O)[C@H](Cc1ccccc1)NC(=O)[C@H](CCC(=O)O)NC(=O)[C@H](CCCNC(=N)N)NC(=O)[C@H](C)NC(=O)[C@H](C)NC(=O)[C@H](CCC(N)=O)NC(=O)[C@H](CCC(=O)O)NC(=O)[C@H](CCC(=O)O)NC(=O)[C@H](CC(C)C)NC(=O)[C@H](Cc1ccc(O)cc1)NC(=O)[C@H](CO)NC(=O)[C@H](CO)NC(=O)[C@@H](NC(=O)[C@H](CC(=O)O)NC(=O)[C@H](CO)NC(=O)[C@@H](NC(=O)[C@H](Cc1ccccc1)NC(=O)[C@@H](NC(=O)CNC(=O)[C@H](CCC(=O)O)NC(=O)C(C)(C)NC(=O)[C@@H](N)Cc1c[nH]cn1)[C@@H](C)O)[C@@H](C)O)C(C)C)C(=O)N[C@@H](C)C(=O)N[C@@H](CCCCNC(=O)COCCOCCNC(=O)COCCOCCNC(=O)CC[C@H](NC(=O)CCCCCCCCCCCCCCCCC(=O)O)C(=O)O)C(=O)N[C@@H](CC(C)C)C(=O)N[C@H](C(=O)N[C@@H](CCCCN)C(=O)NCC(=O)N[C@@H](CCCNC(=N)N)C(=O)NCC(=O)O)C(C)C` [Example 23, N-epsilon31-[2-(2-{2-[2-(2-{2-[4-Carboxy-4-(17-carboxy-heptadecanoylamino)butyrylamino]ethoxy}ethoxy)acetylamino]ethoxy}ethoxy)acetyl][Aib8,Glu22,Arg26,Lys31]GLP-1-(7-37)] (H-H[Aib]EGTFTSDVSSYLEEQAAREFIAK([AEEA-AEEA-γGlu-C18 diacid])LVKGRG-OH), in that order: 0.02 nM and 1500 to 2000 nM.
In the case of `CCCCCCCCCCCCCCCC(=O)N[C@@H](CCC(=O)NCCOCCOCC(=O)NCCOCCOCC(=O)NCCCC[C@H](NC(=O)[C@H](Cc1ccc(O)cc1)NC(=O)[C@H](CO)NC(=O)[C@H](CO)NC(=O)[C@@H](NC(=O)[C@H](CC(=O)O)NC(=O)[C@H](CO)NC(=O)[C@@H](NC(=O)[C@H](Cc1ccccc1)NC(=O)[C@@H](NC(=O)CNC(=O)[C@H](CCC(=O)O)NC(=O)C(C)(C)NC(=O)[C@@H](N)Cc1c[nH]cn1)[C@@H](C)O)[C@@H](C)O)C(C)C)C(=O)N[C@@H](CCC(=O)O)C(=O)N[C@@H](CCC(=O)O)C(=O)N[C@@H](CCC(N)=O)C(=O)N[C@@H](C)C(=O)N[C@@H](C)C(=O)N[C@@H](CCCNC(=N)N)C(=O)N[C@@H](CCC(=O)O)C(=O)N[C@@H](Cc1ccccc1)C(=O)N[C@H](C(=O)N[C@@H](CCC(=O)O)C(=O)N[C@@H](Cc1c[nH]c2ccccc12)C(=O)N[C@@H](CC(C)C)C(=O)N[C@H](C(=O)N[C@@H](CCCCN)C(=O)NCC(=O)N[C@@H](CCCNC(=N)N)C(=O)N1CCC[C@H]1C(N)=O)C(C)C)[C@@H](C)CC)C(=O)O` [Example 24, N-epsilon20-(2-{2-[2-(2-{2-[2-((S)-4-Carboxy-4-hexadecanoylamino-butyrylamino)ethoxy]ethoxy}acetylamino)ethoxy]ethoxy}-acetyl)[Aib8,Lys20,Glu22,Arg26,Glu30,Pro37]GLP-1-(7-37)amide] (H-H[Aib]EGTFTSDVSSYK([AEEA-AEEA-γGlu-Palmitoyl])EEQAAREFIEWLVKGRP-NH2), the EC50 was 0.01 nM in assay [1] and 1500 to 2000 nM in assay [2].
Taken in the same sequence, the figures for `CC[C@H](C)[C@H](NC(=O)[C@H](Cc1ccccc1)NC(=O)[C@H](CCC(=O)O)NC(=O)[C@H](CCCNC(=N)N)NC(=O)[C@H](C)NC(=O)[C@H](C)NC(=O)[C@H](CCC(N)=O)NC(=O)[C@H](CCC(=O)O)NC(=O)[C@H](CCC(=O)O)NC(=O)[C@H](CC(C)C)NC(=O)[C@H](Cc1ccc(O)cc1)NC(=O)[C@H](CO)NC(=O)[C@H](CO)NC(=O)[C@@H](NC(=O)[C@H](CC(=O)O)NC(=O)[C@H](CO)NC(=O)[C@@H](NC(=O)[C@H](Cc1ccccc1)NC(=O)[C@@H](NC(=O)CNC(=O)[C@H](CCC(=O)O)NC(=O)[C@H](C)NC(=O)CCc1c[nH]cn1)[C@@H](C)O)[C@@H](C)O)C(C)C)C(=O)N[C@@H](C)C(=O)N[C@@H](Cc1c[nH]c2ccccc12)C(=O)N[C@@H](CC(C)C)C(=O)N[C@H](C(=O)N[C@@H](CCCNC(=N)N)C(=O)NCC(=O)N[C@@H](CCCNC(=N)N)C(=O)N[C@@H](CCCCNC(=O)COCCOCCNC(=O)CC[C@H](NC(=O)CC[C@H](NC(=O)CC[C@H](NC(=O)CCCCCCCCCCCCCCCCCCC(=O)O)C(=O)O)C(=O)O)C(=O)O)C(=O)O)C(C)C` [Example 25, N-epsilon37-(2-{2-[2-((S)-4-Carboxy-4-{(S)-4-carboxy-4-[(S)-4-carboxy-4-(19-carboxy-nonadecanoylamino)butyrylamino]butyrylamino}butyrylamino)ethoxy]ethoxy}acetyl)[DesaminoHis7,Glu22,Arg26,Arg34,Lys37]GLP-1-(7-37)] were 0.36 nM and 150 to 200 nM.
With `CC[C@H](C)[C@H](NC(=O)[C@H](Cc1ccccc1)NC(=O)[C@H](CCC(=O)O)NC(=O)[C@H](CCCNC(=N)N)NC(=O)[C@H](C)NC(=O)[C@H](C)NC(=O)[C@H](CCC(N)=O)NC(=O)[C@H](CCC(=O)O)NC(=O)[C@H](CCC(=O)O)NC(=O)[C@H](CC(C)C)NC(=O)[C@H](Cc1ccc(O)cc1)NC(=O)[C@H](CO)NC(=O)[C@H](CO)NC(=O)[C@@H](NC(=O)[C@H](CC(=O)O)NC(=O)[C@H](CO)NC(=O)[C@@H](NC(=O)[C@H](Cc1ccccc1)NC(=O)[C@@H](NC(=O)CNC(=O)[C@H](CCC(=O)O)NC(=O)C(C)(C)NC(=O)[C@@H](N)Cc1c[nH]cn1)[C@@H](C)O)[C@@H](C)O)C(C)C)C(=O)N[C@@H](C)C(=O)N[C@@H](Cc1c[nH]c2ccccc12)C(=O)N[C@@H](CC(C)C)C(=O)N[C@H](C(=O)N[C@@H](CCCNC(=N)N)C(=O)NCC(=O)N[C@@H](CCCNC(=N)N)C(=O)N[C@@H](CCCCNC(=O)COCCOCCNC(=O)COCCOCCNC(=O)CC[C@H](NC(=O)CCCCCCCCCCCCCCCCC(=O)O)C(=O)O)C(=O)O)C(C)C` [Example 27, N-epsilon37-[2-(2-{2-[2-(2-{2-[(S)-4-Carboxy-4-(17-carboxy-heptadecanoylamino)-butyrylamino]-ethoxy}-ethoxy)-acetylamino]-ethoxy}-ethoxy)-acetyl] [Aib8,Glu22,Arg26,Arg34,Lys37]GLP-1-(7-37)], the EC50 was 0.05 nM in assay [1] and 100 to 150 nM in assay [2].
